Results: US20260224588A1, “BENZODIAZEPINONE-DERIVED INHIBITORS OF EGFR AND HER2” (The Research Foundation for the State University of New York, priority 2023, published 2026)
Entries after “also recorded” stand apart in the source; their conditions may differ.

Experiments:
[1] = target: T1, TAOK1 (Homo sapiens, UniProt Q7L7X3); assay: KINOMEscan; assay type: binding; conditions: 1 μM of compound 4; read-out: POC
T1 construct: purchased Eurofins DiscoverX Corporation

[2] = target: T2, TBK1 (Homo sapiens, UniProt Q9UHD2); assay: KINOMEscan; assay type: binding; conditions: 1 μM of compound 4; read-out: POC
T2 construct: purchased Eurofins DiscoverX Corporation

[3] = target: T3, FER (Homo sapiens, UniProt P16591); assay: KINOMEscan; assay type: binding; conditions: 1 μM of compound 4; read-out: POC
T3 construct: purchased Eurofins DiscoverX Corporation

[4] = target: T4, p38-beta (Homo sapiens, UniProt Q15759); assay: KINOMEscan; assay type: binding; conditions: 1 μM of compound 4; read-out: POC
T4 construct: purchased Eurofins DiscoverX Corporation (KINOMEscan)

[5] = target: PKMYT1 (Homo sapiens, UniProt Q99640); assay: KINOMEscan; assay type: binding; conditions: 1 μM of compound 4; read-out: POC
[6] = target: T5, ACVR1B (Homo sapiens, UniProt P36896); assay: KINOMEscan; assay type: binding; conditions: 1 μM of compound 4; read-out: POC
T5 construct: purchased Eurofins DiscoverX Corporation

[7] = target: T6, TNIK (Homo sapiens, UniProt Q9UKE5); assay: KINOMEscan; assay type: binding; conditions: 1 μM of compound 4; read-out: POC
T6 construct: purchased Eurofins DiscoverX Corporation

[8] = target: T7, RET(V804M) (Homo sapiens, UniProt P07949, V804M); assay: KINOMEscan; assay type: binding; conditions: 1 μM of compound 4; read-out: POC
T7 construct: purchased Eurofins DiscoverX Corporation (KINOMEscan screening service)

[9] = target: CAMK2G (Homo sapiens, UniProt Q13555); assay: KINOMEscan; assay type: binding; conditions: 1 μM of compound 4; read-out: POC
[10] = target: T8, HIPK3 (Homo sapiens, UniProt Q9H422); assay: KINOMEscan; assay type: binding; conditions: 1 μM of compound 4; read-out: POC
T8 construct: purchased Eurofins DiscoverX Corporation

[11] = target: CSNK1D (Homo sapiens, UniProt P48730); assay: KINOMEscan; assay type: binding; conditions: 1 μM of compound 4; read-out: POC
[12] = target: MST4 (Homo sapiens, UniProt Q9P289); assay: KINOMEscan; assay type: binding; conditions: 1 μM of compound 4; read-out: POC
[13] = target: NEK6 (Homo sapiens, UniProt Q9HC98); assay: KINOMEscan; assay type: binding; conditions: 1 μM of compound 4; read-out: POC
[14] = target: CDK7 (Homo sapiens, UniProt P50613); assay: KINOMEscan; assay type: binding; conditions: 1 μM of compound 4; read-out: POC
[15] = target: CDK4-cyclinD1 (Homo sapiens, UniProt P11802); assay: KINOMEscan; assay type: binding; conditions: 1 μM of compound 4; read-out: POC
[16] = target: CLK2 (Homo sapiens, UniProt P49760); assay: KINOMEscan; assay type: binding; conditions: 1 μM of compound 4; read-out: POC
[17] = target: T9, GSK3A (Homo sapiens, UniProt P49840); assay: KINOMEscan; assay type: binding; conditions: 1 μM of compound 4; read-out: POC
T9 construct: purchased Eurofins DiscoverX Corporation

[18] = target: T10, PAK7 (Homo sapiens, UniProt Q9P286); assay: KINOMEscan; assay type: binding; conditions: 1 μM of compound 4; read-out: POC
T10 construct: purchased Eurofins DiscoverX Corporation (KINOMEscan)

[19] = target: T11, SGK (Homo sapiens, UniProt O00141); assay: KINOMEscan; assay type: binding; conditions: 1 μM of compound 4; read-out: POC
T11 construct: purchased Eurofins DiscoverX (KINOMEscan service)

[20] = target: LOK (Homo sapiens, UniProt O94804); assay: KINOMEscan; assay type: binding; conditions: 1 μM of compound 4; read-out: POC
[21] = target: T12, ACVR1 (Homo sapiens, UniProt Q04771); assay: KINOMEscan; assay type: binding; conditions: 1 μM of compound 4; read-out: POC
T12 construct: purchased Eurofins DiscoverX Corporation

[22] = target: T13, FGFR1 (Homo sapiens, UniProt P11362); assay: KINOMEscan; assay type: binding; conditions: 1 μM of compound 4; read-out: POC
T13 construct: purchased Eurofins DiscoverX Corporation

[23] = target: T14, TYK2(JH2domain-pseudokinase) (Homo sapiens, UniProt P29597); assay: KINOMEscan; assay type: binding; conditions: 1 μM of compound 4; read-out: POC
T14 construct: TYK2(JH2domain-pseudokinase); purchased Eurofins DiscoverX

[24] = target: T15, TTK (Homo sapiens, UniProt P33981); assay: KINOMEscan; assay type: binding; conditions: 1 μM of compound 4; read-out: POC
T15 construct: purchased Eurofins DiscoverX Corporation

[25] = test system: EGFR (L858R/T790M) in H1975 lung cancer cells; assay: Western blotting of EGFR, ERK1/2 and AKT phosphorylation; assay type: cell-based, human; conditions: 6 hours treatment
Procedure: FIG. 2. […] All experiments performed after 6 hours treatments of inhibitors or DMSO controls and Western blots are representative of at least three independent experiments.
Western blotting. Cells were collected and lysed with lysis buffer (5M NaCl, 1M TRIS pH 8.0, 10% SDS, 10% Triton X-100 and a tablet of protease inhibitors) and processed for Western blotting analysis. Primary antibodies used; phospho-EGFR (Tyr1068; #2234, 1:1,000), EGFR (#4267; 1:1,000), phospho-AKT (Ser473; #4060, 1:1,000), AKT (#9272, 1:1,000), phospho-ERK1/2 (Thr202/Tyr204; #4370, 1:1,000), and ERK1/2 (#4695, 1:1,000) antibodies; were purchased from Cell Signaling Technology. Secondary Goat anti-rabbit IgG starbright blue 700 and Anti-tubulin hFAB Rhodamine Tubulin were purchased from Bio-rad.

[26] = target: MLCK (Homo sapiens, UniProt Q32MK0); assay: KINOMEscan; assay type: binding; conditions: 1 μM of compound 4; read-out: POC
[27] = target: KIT(D816V) (Homo sapiens, UniProt P10721, D816V); assay: KINOMEscan; assay type: binding; conditions: 1 μM of compound 4; read-out: POC
[28] = target: T16, ERBB4 (Homo sapiens, UniProt Q15303); assay: KINOMEscan; assay type: binding; conditions: 1 μM of compound 4; read-out: POC
T16 construct: purchased Eurofins DiscoverX Corporation

[29] = target: DMPK (Homo sapiens, UniProt Q09013); assay: KINOMEscan; assay type: binding; conditions: 1 μM of compound 4; read-out: POC
[30] = target: T17, SNRK (Homo sapiens, UniProt Q9NRH2); assay: KINOMEscan; assay type: binding; conditions: 1 μM of compound 4; read-out: POC
T17 construct: purchased Eurofins DiscoverX (KINOMEscan service)

[31] = target: DCAMKL1 (Homo sapiens, UniProt O15075); assay: KINOMEscan; assay type: binding; conditions: 1 μM of compound 4; read-out: POC
[32] = target: MAP3K3 (Homo sapiens, UniProt Q99759); assay: KINOMEscan; assay type: binding; conditions: 1 μM of compound 4; read-out: POC
[33] = target: T18, ABL1-nonphosphorylated (Homo sapiens, UniProt P00519); assay: KINOMEscan; assay type: binding; conditions: 1 μM of compound 4; read-out: POC
T18 construct: purchased Eurofins DiscoverX Corporation

[34] = target: T19, SLK (Homo sapiens, UniProt Q9H2G2); assay: KINOMEscan; assay type: binding; conditions: 1 μM of compound 4; read-out: POC
T19 construct: purchased Eurofins DiscoverX (KINOMEscan service)

Sequence of CDK4-cyclinD1 (P11802 whole entry): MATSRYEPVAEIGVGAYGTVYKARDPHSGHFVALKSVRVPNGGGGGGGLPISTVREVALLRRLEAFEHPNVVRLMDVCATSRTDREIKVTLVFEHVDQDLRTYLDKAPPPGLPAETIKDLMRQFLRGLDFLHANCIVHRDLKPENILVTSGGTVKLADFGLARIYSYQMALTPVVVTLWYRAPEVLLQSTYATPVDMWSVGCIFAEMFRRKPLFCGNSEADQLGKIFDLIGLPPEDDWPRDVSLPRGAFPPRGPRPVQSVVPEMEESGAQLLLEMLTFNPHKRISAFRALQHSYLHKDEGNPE
Sequence of CDK4-cyclinD1 (P24385 whole entry partner): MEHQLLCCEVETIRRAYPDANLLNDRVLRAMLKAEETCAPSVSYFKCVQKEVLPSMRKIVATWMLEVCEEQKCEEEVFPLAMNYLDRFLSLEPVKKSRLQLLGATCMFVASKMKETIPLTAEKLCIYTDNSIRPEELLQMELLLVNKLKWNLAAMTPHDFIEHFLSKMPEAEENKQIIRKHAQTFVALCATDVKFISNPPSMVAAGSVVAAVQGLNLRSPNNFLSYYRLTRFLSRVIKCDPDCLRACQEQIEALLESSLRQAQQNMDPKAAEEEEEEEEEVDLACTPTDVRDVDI
T1 sequence (Q7L7X3 whole entry): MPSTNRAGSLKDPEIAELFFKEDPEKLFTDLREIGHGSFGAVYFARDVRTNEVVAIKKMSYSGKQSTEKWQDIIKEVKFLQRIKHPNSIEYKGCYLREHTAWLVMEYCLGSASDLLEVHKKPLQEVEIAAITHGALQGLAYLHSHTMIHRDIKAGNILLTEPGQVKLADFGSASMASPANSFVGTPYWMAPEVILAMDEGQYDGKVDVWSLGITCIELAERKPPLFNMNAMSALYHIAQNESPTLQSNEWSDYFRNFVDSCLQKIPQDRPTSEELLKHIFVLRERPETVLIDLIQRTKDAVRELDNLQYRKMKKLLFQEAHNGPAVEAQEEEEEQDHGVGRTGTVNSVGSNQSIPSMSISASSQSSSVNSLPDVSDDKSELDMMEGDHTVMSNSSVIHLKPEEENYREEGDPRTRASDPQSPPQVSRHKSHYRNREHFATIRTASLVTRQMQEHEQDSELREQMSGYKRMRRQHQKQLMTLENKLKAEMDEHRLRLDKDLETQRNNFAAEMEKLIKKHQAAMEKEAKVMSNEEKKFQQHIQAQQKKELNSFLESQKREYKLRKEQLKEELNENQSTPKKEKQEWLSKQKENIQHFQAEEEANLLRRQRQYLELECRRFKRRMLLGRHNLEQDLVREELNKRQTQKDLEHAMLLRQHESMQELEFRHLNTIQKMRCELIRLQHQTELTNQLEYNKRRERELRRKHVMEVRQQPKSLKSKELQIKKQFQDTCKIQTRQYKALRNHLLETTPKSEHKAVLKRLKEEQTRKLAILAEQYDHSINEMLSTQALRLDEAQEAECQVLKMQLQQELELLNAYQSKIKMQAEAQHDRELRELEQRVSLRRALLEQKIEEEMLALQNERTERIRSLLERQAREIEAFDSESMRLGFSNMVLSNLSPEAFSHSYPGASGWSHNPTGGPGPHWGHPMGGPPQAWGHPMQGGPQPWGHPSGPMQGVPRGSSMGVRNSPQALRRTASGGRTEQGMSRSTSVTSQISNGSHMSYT
T9 sequence (P49840 whole entry): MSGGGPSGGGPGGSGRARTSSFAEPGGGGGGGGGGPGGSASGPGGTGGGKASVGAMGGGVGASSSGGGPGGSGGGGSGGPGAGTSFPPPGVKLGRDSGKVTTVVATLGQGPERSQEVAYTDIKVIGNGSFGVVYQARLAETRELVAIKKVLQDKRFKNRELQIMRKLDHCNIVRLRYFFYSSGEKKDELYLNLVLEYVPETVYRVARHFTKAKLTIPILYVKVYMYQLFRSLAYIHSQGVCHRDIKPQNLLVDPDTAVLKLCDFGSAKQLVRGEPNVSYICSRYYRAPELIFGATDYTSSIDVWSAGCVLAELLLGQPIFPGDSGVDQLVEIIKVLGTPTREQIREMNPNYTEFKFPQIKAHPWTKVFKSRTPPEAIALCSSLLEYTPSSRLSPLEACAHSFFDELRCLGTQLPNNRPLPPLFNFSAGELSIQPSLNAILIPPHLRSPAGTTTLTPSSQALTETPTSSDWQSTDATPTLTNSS
T5 sequence (P36896 24-505): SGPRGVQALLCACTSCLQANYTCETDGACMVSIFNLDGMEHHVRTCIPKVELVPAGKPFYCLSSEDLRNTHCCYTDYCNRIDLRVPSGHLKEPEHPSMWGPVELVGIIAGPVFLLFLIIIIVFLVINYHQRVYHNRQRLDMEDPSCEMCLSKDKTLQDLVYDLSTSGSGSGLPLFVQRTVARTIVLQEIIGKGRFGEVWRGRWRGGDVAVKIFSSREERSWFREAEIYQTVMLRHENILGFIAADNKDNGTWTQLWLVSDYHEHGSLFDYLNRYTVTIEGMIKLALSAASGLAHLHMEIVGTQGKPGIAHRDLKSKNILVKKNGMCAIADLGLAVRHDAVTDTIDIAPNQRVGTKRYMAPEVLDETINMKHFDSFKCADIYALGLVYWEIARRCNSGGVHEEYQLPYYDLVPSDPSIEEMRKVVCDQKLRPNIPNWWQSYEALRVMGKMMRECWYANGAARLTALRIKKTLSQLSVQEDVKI
Sequence of CLK2 (P49760 whole entry): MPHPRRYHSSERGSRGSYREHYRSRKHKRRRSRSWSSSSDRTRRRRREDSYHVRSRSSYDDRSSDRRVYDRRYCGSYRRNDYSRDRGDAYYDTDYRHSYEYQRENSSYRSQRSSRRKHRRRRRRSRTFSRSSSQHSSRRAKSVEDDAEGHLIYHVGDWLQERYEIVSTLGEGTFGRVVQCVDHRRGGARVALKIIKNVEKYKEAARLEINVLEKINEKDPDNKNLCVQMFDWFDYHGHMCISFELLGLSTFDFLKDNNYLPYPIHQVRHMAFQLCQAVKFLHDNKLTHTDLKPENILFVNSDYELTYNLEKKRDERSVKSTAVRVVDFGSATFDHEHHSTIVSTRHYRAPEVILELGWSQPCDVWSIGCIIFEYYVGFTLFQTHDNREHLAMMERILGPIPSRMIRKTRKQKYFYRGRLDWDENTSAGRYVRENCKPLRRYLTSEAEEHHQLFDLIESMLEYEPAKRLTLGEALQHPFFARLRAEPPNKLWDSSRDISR
Sequence of CSNK1D (P48730 whole entry): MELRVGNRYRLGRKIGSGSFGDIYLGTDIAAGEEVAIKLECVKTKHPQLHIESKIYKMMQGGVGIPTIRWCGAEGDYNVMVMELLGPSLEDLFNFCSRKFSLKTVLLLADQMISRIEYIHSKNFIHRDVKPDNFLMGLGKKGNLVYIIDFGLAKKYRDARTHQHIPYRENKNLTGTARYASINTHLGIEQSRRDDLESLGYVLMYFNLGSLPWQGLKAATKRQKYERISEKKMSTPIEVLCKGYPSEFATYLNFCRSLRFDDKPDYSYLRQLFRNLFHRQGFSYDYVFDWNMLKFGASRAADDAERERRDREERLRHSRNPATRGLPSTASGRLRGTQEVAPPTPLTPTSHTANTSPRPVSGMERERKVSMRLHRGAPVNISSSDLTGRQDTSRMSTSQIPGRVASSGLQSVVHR
T16 sequence (Q15303 26-1308): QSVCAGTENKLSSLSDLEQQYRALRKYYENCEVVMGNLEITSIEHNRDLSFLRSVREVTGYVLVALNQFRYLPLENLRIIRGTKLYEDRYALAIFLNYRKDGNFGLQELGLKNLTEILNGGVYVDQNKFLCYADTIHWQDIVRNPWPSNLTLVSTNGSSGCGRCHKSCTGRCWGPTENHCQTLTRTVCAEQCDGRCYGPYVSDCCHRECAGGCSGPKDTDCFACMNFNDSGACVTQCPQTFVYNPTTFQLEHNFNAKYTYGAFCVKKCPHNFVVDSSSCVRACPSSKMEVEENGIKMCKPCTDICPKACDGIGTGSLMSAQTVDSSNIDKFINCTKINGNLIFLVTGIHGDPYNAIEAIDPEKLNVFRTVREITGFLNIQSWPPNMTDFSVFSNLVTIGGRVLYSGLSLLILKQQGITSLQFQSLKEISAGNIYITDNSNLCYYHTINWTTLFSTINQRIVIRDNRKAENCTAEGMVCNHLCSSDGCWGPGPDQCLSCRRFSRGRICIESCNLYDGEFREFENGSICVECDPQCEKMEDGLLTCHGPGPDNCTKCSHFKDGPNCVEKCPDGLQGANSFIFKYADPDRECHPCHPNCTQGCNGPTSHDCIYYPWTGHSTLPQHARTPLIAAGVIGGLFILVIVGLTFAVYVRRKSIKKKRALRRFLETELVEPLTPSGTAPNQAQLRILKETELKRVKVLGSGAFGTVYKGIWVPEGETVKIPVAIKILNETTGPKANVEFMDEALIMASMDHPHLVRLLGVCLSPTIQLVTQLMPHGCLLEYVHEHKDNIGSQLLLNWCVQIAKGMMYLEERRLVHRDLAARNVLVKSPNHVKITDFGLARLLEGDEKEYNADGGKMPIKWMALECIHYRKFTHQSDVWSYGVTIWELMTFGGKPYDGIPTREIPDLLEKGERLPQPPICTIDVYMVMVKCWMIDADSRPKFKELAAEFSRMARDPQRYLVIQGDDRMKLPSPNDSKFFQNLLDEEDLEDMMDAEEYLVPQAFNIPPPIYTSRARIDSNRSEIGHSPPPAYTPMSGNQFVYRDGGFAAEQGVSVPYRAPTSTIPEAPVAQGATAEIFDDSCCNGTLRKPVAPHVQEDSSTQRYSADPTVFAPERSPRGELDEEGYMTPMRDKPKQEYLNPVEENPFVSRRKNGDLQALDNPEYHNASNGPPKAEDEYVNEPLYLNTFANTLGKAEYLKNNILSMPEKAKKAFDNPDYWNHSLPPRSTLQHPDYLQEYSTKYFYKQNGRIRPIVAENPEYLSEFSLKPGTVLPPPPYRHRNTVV

## C=CC(=O)Nc1ccc(OC)c(Nc2cc(-c3[nH]c(CC)nc3-c3cccc(NC(=O)c4cccc5c4NC(=O)c4ccccc4N5)c3)ccn2)c1 [Compound 4, N-(3-(5-(2-((5-Acrylamido-2-methoxyphenyl)amino)pyridin-4-yl)-2-ethyl-1H-imidazol-4-yl)phenyl)-11-oxo-10,11-dihydro-5H-dibenzo[b,e][1,4]diazepine-9-carboxamide]
[1]
  remaining binding at 1 µM: 100%
[2]
  remaining binding at 1 µM: 95%
[3]
  remaining binding at 1 µM: 36%
[4]
  remaining binding at 1 µM: 59%
[5]
  remaining binding at 1 µM: 99%
[6]
  remaining binding at 1 µM: 85%
[7]
  remaining binding at 1 µM: 33%
[8]
  remaining binding at 1 µM: 91%
[9]
  remaining binding at 1 µM: 100%
[10]
  remaining binding at 1 µM: 100%
[11]
  remaining binding at 1 µM: 87%
[12]
  remaining binding at 1 µM: 94%
[13]
  remaining binding at 1 µM: 100%
[14]
  remaining binding at 1 µM: 49%
[15]
  remaining binding at 1 µM: 94%
[16]
  remaining binding at 1 µM: 63%
[17]
  remaining binding at 1 µM: 65%
[18]
  remaining binding at 1 µM: 77%
[19]
  remaining binding at 1 µM: 86%
[20]
  remaining binding at 1 µM: 49%
[21]
  remaining binding at 1 µM: 96%
[22]
  remaining binding at 1 µM: 86%
[23]
  remaining binding at 1 µM: 100%
[24]
  remaining binding at 1 µM: 72%
[25]
  EGFR, ERK1/2 and AKT phosphorylation (Western blot): most effective in suppression of active EGFR (pY1068) as well as downstream pERK; also recorded: reduces EGFR (L858R/T790M), ERK1/2, and AKT phosphorylation
[26]
  remaining binding at 1 µM: 86%
[27]
  remaining binding at 1 µM: 94%
[28]
  remaining binding at 1 µM: 4.9%
[29]
  remaining binding at 1 µM: 45%
[30]
  remaining binding at 1 µM: 82%
[31]
  remaining binding at 1 µM: 100%
[32]
  remaining binding at 1 µM: 51%
[33]
  remaining binding at 1 µM: 100%
[34]
  remaining binding at 1 µM: 100%
